Here are results for 23 compounds from ChEMBL document CHEMBL3045353, “Identification of new limonoids from Swietenia and their biological activity against insects” (Pest Manag Sci, 2010).

Data set [1] concerns Helicoverpa zea. Kind of data set: Growth inhibition of neonate larvae of Helicoverpa zea (corn earworm)at 250 mg/l after 6 days relative to control. Type of data set: functional. Particulars: 144 h, read-out: GI.
The subject of data set [2] is Manduca sexta. Kind of data set: Growth inhibition of neonate larvae of Manduca sexta at 250 mg/l after 6 days relative to control. Type of data set: functional. Particulars: 144 h, read-out: GI.
In data set [3] the test system is Heliothis virescens. Kind of data set: Growth inhibition of neonate larvae of Heliothis virescens (tobacco budworm) at 250 mg/l after 6 days relative to control. Type of data set: functional. Particulars: 144 h, read-out: GI.
The subject of data set [4] is Spodoptera frugiperda. Nature of the data set: Antifeedant activity against fourth-instar larvae of Spodoptera frugiperda (fall armyworm) fed on compound treated savanna grass for 18 hr. It counts as functional, organism-based.
For data set [5], the system named is Spodoptera frugiperda. Kind of data set: Phagostimulant activity in fourth-instar larvae of Spodoptera frugiperda (fall armyworm) fed on compound treated savanna grass for 18 hr. It counts as ADME, organism-based. Particulars: in vivo, po.

Converted amounts (≈) assume the structure as drawn.

For `CC1(C)[C@H]([C@@H](O)C(=O)O)[C@]2(C)C(=O)[C@@](O)(C=C3[C@@H]4CC(=O)O[C@@H](c5ccoc5)[C@]4(C)CC[C@@H]32)[C@H]1O` [DEMETHYL-3-DETIGLOYL-2-HYDROXYISOSWIETENINE], the inhibition of growth at 250 µg/mL in data set [1] was 11.1%; in data set [2], 13.2%; in data set [3], 24.5%. Also, in data set [4], the DC50 was > 10000 µg/mL.

As to `COC(=O)[C@H](O)[C@H]1C(C)(C)[C@H](O)[C@]2(O)C=C3[C@@H]4CC(=O)O[C@@H](c5ccoc5)[C@]4(C)CC[C@@H]3[C@@]1(C)C2=O` [3-DETIGLOYL-2-HYDROXYISOSWIETENINE], the inhibition of growth at 250 µg/mL in data set [1] worked out at 22.4%; in data set [2], 29.2%; in data set [3], 15.8%. Besides, the DC50 in data set [4] amounted to 188 µg/mL (≈ 374 µM).

Consider `COC(=O)[C@H](O)[C@H]1C(C)(C)[C@H](C(=O)Oc2ccccc2)[C@@H]2C=C3[C@@H]4CC(=O)O[C@@H](c5ccoc5)[C@]4(C)CC[C@@H]3[C@@]1(C)C2=O` [3-O-BENZOYL-3-DETIGLOYLISOSWIETENINE], for which the inhibition of growth at 250 µg/mL in data set [1] is 27.1%; in data set [2], 8.18%; in data set [3] it was 57.8%. In data set [4], this compound displayed a DC50 of 254 µg/mL (≈ 430 µM).

On to `C/C=C(\C)OC(=O)[C@@H]1[C@@H]2C=C3[C@@H]4CC(=O)O[C@@H](c5ccoc5)[C@]4(C)CC[C@@H]3[C@@](C)(C2=O)[C@@H]([C@H](C(=O)OC)C(=O)Oc2ccccc2)C1(C)C` [6-O-BENZOYLSWIETENINE], for which the inhibition of growth at 250 µg/mL was determined as 10.2% in data set [1], 32.8% in data set [2] and 28.7% in data set [3]. The compound further came in with a DC50 in data set [4] of 406 µg/mL (≈ 604 µM).

Regarding `COC(=O)[C@H](C(=O)Oc1ccccc1)[C@H]1C(C)(C)[C@H](C(=O)Oc2ccccc2)[C@@H]2CC3=C4CC(=O)O[C@@H](c5ccoc5)[C@]4(C)CC[C@@H]3[C@@]1(C)C2=O` [3,6-O,O-DIBENZOYLSWIETENOLIDE], the DC50 in data set [4] turned out to be 416 µg/mL (≈ 599 µM).

For the compound `COC(=O)[C@H](O)[C@H]1C(C)(C)[C@H](C(=O)OC(C)C)[C@@H]2CC3=C4CC(=O)O[C@@H](c5ccoc5)[C@]4(C)CC[C@@H]3[C@@]1(C)C2=O` [3-O-ISOBUTYRYLSWIETENOLIDE], the inhibition of growth at 250 µg/mL in data set [1] is 33.1%; in data set [2], 45.9%; in data set [3], 35.1%. Further, in data set [4], the DC50 came to 0.009 µg/mL (≈ 0.0162 µM).

Take `COC(=O)[C@H](C(=O)Oc1ccccc1)[C@H]1C(C)(C)[C@H](C(=O)Oc2ccccc2)[C@@H]2C=C3[C@@H]4CC(=O)O[C@@H](c5ccoc5)[C@]4(C)CC[C@@H]3[C@@]1(C)C2=O` [3,6-O,O-DIBENZOYL-3-DETIGLOYLISOSWIETENINE]: the inhibition of growth at 250 µg/mL was 49.2% in data set [1], 25.7% in data set [2] and 18.6% in data set [3]. The Activity result in data set [5] is listed as “Toxic”.

`CCOC(=O)[C@@H]1[C@@H]2CC3=C4CC(=O)O[C@@H](c5ccoc5)[C@]4(C)CC[C@@H]3[C@@](C)(C2=O)[C@@H]([C@@H](O)C(=O)OC)C1(C)C` [3-O-PROPIONYLSWIETENOLIDE]: the figures for the inhibition of growth at 250 µg/mL in data set [1], in data set [2] and in data set [3] were 16.6%, 18.3% and 41.7%, respectively. The DC50 in data set [4] was determined as 53.8 µg/mL (≈ 99.1 µM).

With `C/C=C(\C)OC(=O)[C@H]1[C@@H]2C(=O)[C@](C)([C@H]3CC[C@]4(C)[C@@H](CC(=O)O[C@H]4c4ccoc4)[C@]34O[C@@H]24)[C@@H](C(O)C(=O)OC)C1(C)C` (stereo partly specified) [SWIETEMAHONIN G], the inhibition of growth at 250 µg/mL in data set [1] is 48.1%; in data set [2], 32.8%; in data set [3] it was 44.3%. In data set [4], this compound displayed a DC50 of 13.8 µg/mL (≈ 23.6 µM).

Regarding `CCOC(=O)[C@@H](C(=O)OC)[C@H]1C(C)(C)[C@H](C(=O)OCC)[C@]2(O)C=C3[C@@H]4CC(=O)O[C@@H](c5ccoc5)[C@]4(C)CC[C@@H]3[C@@]1(C)C2=O` [3,6-O,O-DIPROPIONYL-3-DETIGLOYL-2-HYDROXYISOSWIETENINE], the inhibition of growth at 250 µg/mL in data set [1] was 32.7%; in data set [2] it was 15.8%; in data set [3], 17.5%. Also, the DC50 in data set [4] was 159 µg/mL (≈ 259 µM).

For `CCOC(=O)[C@@H](C(=O)OC)[C@H]1C(C)(C)[C@H](C(=O)OCC)[C@@H]2CC3=C4CC(=O)O[C@@H](c5ccoc5)[C@]4(C)CC[C@@H]3[C@@]1(C)C2=O` [O,O-DIPROPIONYLSWIETENOLIDE], the inhibition of growth at 250 µg/mL was 20.8% in data set [1], 32.7% in data set [2] and 52.7% in data set [3]. This compound also yielded a DC50 in data set [4] of 45.5 µg/mL (≈ 76 µM).

In turn, `COC(=O)[C@H](O)[C@H]1C(C)(C)[C@H](C(=O)Oc2ccccc2)[C@@H]2CC3=C4CC(=O)O[C@@H](c5ccoc5)[C@]4(C)CC[C@@H]3[C@@]1(C)C2=O` [3-O-BENZOYLSWIETENOLIDE] had a DC50 in data set [4] of 244 µg/mL (≈ 414 µM).

`C/C=C(\C)OC(=O)[C@H]1C(C)(C)[C@H]([C@@H](O)C(=O)OC)[C@]2(C)C(=O)[C@@]1(O)C=C1[C@@H]3CC(=O)O[C@@H](c4ccoc4)[C@]3(C)CC[C@@H]12` [2-HYDROXYSWIETENINE]: the inhibition of growth at 250 µg/mL came to 28.2% in data set [1], 31.7% in data set [2] and 62.6% in data set [3]. Moreover, the DC50 in data set [4] was 65.8 µg/mL (≈ 113 µM).

For the compound `COC(=O)[C@H](C(=O)Oc1ccccc1)[C@H]1C(C)(C)[C@H](C(=O)Oc2ccccc2)[C@]2(O)C=C3[C@@H]4CC(=O)O[C@@H](c5ccoc5)[C@]4(C)CC[C@@H]3[C@@]1(C)C2=O` [3,6-O,ODIBENZOYL-3-DETIGLOYL-2-HYDROXYISOSWIETENINE], the inhibition of growth at 250 µg/mL was 13.5% in data set [1], 6.24% in data set [2] and 33.8% in data set [3]. Further, the DC50 in data set [4] amounted to 233 µg/mL (≈ 328 µM).

As for `CCOC(=O)[C@@H](C(=O)OC)[C@H]1C(C)(C)[C@H](O)[C@@H]2CC3=C4CC(=O)O[C@@H](c5ccoc5)[C@]4(C)CC[C@@H]3[C@@]1(C)C2=O` [6-O-PROPIONYLSWIETENOLIDE], the inhibition of growth at 250 µg/mL in data set [1] is 27.1%; in data set [2], 21.4%; in data set [3], 62.6%. Also, the DC50 in data set [4] worked out at 57.1 µg/mL (≈ 105 µM).

For `COC(=O)[C@H](C(=O)Oc1ccccc1)[C@H]1C(C)(C)[C@H](O)[C@@H]2CC3=C4CC(=O)O[C@@H](c5ccoc5)[C@]4(C)CC[C@@H]3[C@@]1(C)C2=O` [6-O-BENZOYLSWIETENOLIDE], the inhibition of growth at 250 µg/mL in data set [1] was 39.5%; in data set [2], 43.8%; in data set [3], 27.1%. For the same compound, the DC50 in data set [4] was determined as 73.2 µg/mL (≈ 124 µM).

On to `CC1(C)[C@H](O)[C@@H]2C=C3[C@@H]4CC(=O)O[C@@H](c5ccoc5)[C@]4(C)CC[C@@H]3[C@@](C)(C2=O)[C@H]1[C@@H](O)C(=O)O` [DEMETHYL-3-DETIGLOYLISOSWIETENINE], for which the inhibition of growth at 250 µg/mL in data set [1] was determined as 21.6%; in data set [2], 14.1%; in data set [3] it was 10.2%. In addition, in data set [4], the DC50 was determined as 214 µg/mL (≈ 454 µM).

Regarding `COC(=O)C(O)[C@H]1C(C)(C)[C@@H](O)[C@@H]2C(=O)[C@]1(C)[C@H]1CC[C@]3(C)[C@@H](CC(=O)O[C@H]3c3ccoc3)[C@]13O[C@@H]23` (stereo partly specified) [3-DETIGLOYLISOSWIETEMAHONIN G], the inhibition of growth at 250 µg/mL in data set [1] worked out at 54.6%; in data set [2], 45.1%; in data set [3] it was 49.1%. In addition, the DC50 in data set [4] came out at 107 µg/mL (≈ 213 µM).

Consider `COC(=O)[C@H](O)[C@H]1C(C)(C)[C@H](C(=O)OCC(C)C)[C@@H]2CC3=C4CC(=O)O[C@@H](c5ccoc5)[C@]4(C)CC[C@@H]3[C@@]1(C)C2=O` [3-O-ISOVALERYLSWIETENOLIDE], for which the inhibition of growth at 250 µg/mL in data set [1] was found to be 26.2%; in data set [2] it was 23.7%; in data set [3], 54.5%. In data set [4], this compound had a DC50 of 0.19 µg/mL (≈ 0.333 µM).

Turning to `COC(=O)COC(=O)[C@@H]1[C@@H]2CC3=C4CC(=O)O[C@@H](c5ccoc5)[C@]4(C)CC[C@@H]3[C@@](C)(C2=O)[C@@H]([C@@H](O)C(=O)OC)C1(C)C` [3-O-ACETOXYACETYLSWIETENOLIDE], the inhibition of growth at 250 µg/mL in data set [1] is 30.2%; in data set [2] it was 35.9%; in data set [3], 19%. This compound gave a DC50 in data set [4] of 12.4 µg/mL (≈ 21.1 µM).

On to `COC(=O)[C@H](O)[C@H]1C(C)(C)[C@H](O)[C@@H]2C=C3[C@@H]4CC(=O)O[C@@H](c5ccoc5)[C@]4(C)CC[C@@H]3[C@@]1(C)C2=O` [3-DETIGLOYLISOSWIETENINE], for which the inhibition of growth at 250 µg/mL in data set [1] was 15.2%; in data set [2] it was 17.8%; in data set [3] it was 56%. In data set [4], the DC50 turned out to be 101 µg/mL (≈ 208 µM).

For the compound `CCOC(=O)[C@@H]1[C@@H]2C=C3[C@@H]4CC(=O)O[C@@H](c5ccoc5)[C@]4(C)CC[C@@H]3[C@@](C)(C2=O)[C@@H]([C@@H](O)C(=O)OC)C1(C)C` [3-O-PROPIONYL-3-DETIGLOYLISOSWIETENINE], the inhibition of growth at 250 µg/mL in data set [1] was determined as 13.5%; in data set [2], 12.5%; in data set [3], 32%. Further, in data set [4], the DC50 worked out at 81.9 µg/mL (≈ 151 µM).

For the compound `CC1(C)[C@H](O)[C@@H]2CC3=C4CC(=O)O[C@@H](c5ccoc5)[C@]4(C)CC[C@@H]3[C@@](C)(C2=O)[C@H]1[C@@H](O)C(=O)OO` [DEMETHYLISOSWIETENOLIDE], the inhibition of growth at 250 µg/mL is 24% in data set [1], 9.01% in data set [2] and 32.6% in data set [3]. The DC50 in data set [4] was found to be 254 µg/mL (≈ 520 µM).
